Source: patent US20260209220A1, “SUBSTITUTED TETRAHYDROPYRROLO-PYRIDINONE COMPOUNDS AND THEIR USE IN TREATING MEDICAL CONDITIONS” (Karuna Therapeutics, Inc., priority 2022, published 2026)

Assays:
[1] = target: T1, hM4 receptors (Homo sapiens, UniProt P08173); assay: Human M4 PAM PERK assay (CHO cells, TR-FRET, with EC20 acetylcholine); type: cell-based
T1 construct: expressed in transfected cells; host or cells: CHO cells
T1 sequence (P08173 1-479): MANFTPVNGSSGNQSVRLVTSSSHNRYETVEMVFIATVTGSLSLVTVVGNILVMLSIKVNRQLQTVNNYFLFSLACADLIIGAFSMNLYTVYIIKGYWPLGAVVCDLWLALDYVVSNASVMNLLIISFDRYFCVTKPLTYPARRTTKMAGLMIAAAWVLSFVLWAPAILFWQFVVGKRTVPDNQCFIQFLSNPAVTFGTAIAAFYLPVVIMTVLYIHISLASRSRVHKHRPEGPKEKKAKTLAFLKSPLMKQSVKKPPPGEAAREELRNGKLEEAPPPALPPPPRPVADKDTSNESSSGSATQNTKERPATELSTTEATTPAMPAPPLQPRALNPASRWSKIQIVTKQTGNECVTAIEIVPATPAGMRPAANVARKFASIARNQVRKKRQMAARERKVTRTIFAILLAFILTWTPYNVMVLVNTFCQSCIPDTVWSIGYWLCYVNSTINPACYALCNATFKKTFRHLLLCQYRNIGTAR
How it was run: (§1)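 CHO cells expressing human or rat M4, serum-starved 4 h, then given compound (10-point, 10 μM top, ½-log) with EC20 acetylcholine (10 nM final) for 5 min at 37 °C. Lysates assayed for phospho-ERK by TR-FRET after 2 h detection at RT.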

[2] = target: T2, rM4 receptors (Rattus norvegicus, UniProt P08485); assay: Rat M4 PAM PERK assay (CHO cells, TR-FRET, with EC20 acetylcholine); type: cell-based
T2 construct: expressed in transfected cells; host or cells: CHO cells
T2 sequence (P08485 1-478): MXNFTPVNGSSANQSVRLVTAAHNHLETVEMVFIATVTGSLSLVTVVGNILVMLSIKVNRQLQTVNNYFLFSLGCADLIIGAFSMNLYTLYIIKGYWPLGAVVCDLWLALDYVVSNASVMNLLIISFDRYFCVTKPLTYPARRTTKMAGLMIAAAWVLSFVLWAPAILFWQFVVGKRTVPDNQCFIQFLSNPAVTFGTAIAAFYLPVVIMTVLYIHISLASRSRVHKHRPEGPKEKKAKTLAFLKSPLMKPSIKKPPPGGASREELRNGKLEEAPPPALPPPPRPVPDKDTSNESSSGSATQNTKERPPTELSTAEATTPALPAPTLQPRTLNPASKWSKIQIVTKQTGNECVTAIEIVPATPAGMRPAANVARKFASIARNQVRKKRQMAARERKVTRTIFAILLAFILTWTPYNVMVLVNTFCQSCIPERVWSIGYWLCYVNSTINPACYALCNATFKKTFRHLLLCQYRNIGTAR
How it was run: as §1

[3] = target: T3, human M4 receptor (Homo sapiens, UniProt P08173); assay: M4 GTPγS PAM assay (CHO-K1 membranes, 35S-GTP binding, with EC20 acetylcholine); type: biochemical; conditions: with EC20 acetylcholine (40 nM)
T3 construct: expressed in transfected cells; host or cells: CHO-K1 cells (membranes)
T3 sequence (P08173 1-479): T1 sequence (P08173 1-479)
How it was run: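 Membranes from CHO-K1 cells stably expressing human M4 ([…]) in 20 mM HEPES, 10 mM MgCl2, 100 mM NaCl, with 0.1 μM GDP final, were preincubated with compound 10-15 min at RT. Acetylcholine at EC20 (40 nM final) was added for 10-15 min, then 0.4 nM 35S-GTP solution for 1 h at RT. Filter-bound radioactivity was counted.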

Structure (SMILES) | EC50 [1] [nM] | EC50 [2] [nM] | EC50 [3] [nM]
Cc1cc(=O)n(C)c2c1CN(C(=O)CC1CN(c3nc(C(F)(F)F)ns3)C1)C2 [Compound I-28] | 200 to 1000 | 200 to 1000 | 200 to 1000
Cc1cc(=O)n(C)c2c1CN(C(=O)CC1CN(c3ccc(C4CC4)cc3)C1)C2 [Compound I-19] | 200 to 1000 | 50 to 200 | 50 to 200
Cc1cc(=O)n(C)c2c1CN(C(=O)CC1CN(c3ccnc(C4CC4)c3)C1)C2 [Compound I-22] | 50 to 200 | 200 to 1000 | 200 to 1000
Cc1cc(=O)n(C)c2c1CN(C(=O)CC1CN(c3ccc4c(c3)COC4)C1)C2 [Compound I-16] | 50 to 200 | 200 to 1000 | 200 to 1000
Cc1c2c(n(C)c(=O)c1C)CN(C(=O)CC1CN(c3nc(C(F)(F)F)c(C4CC4)s3)C1)C2 [Compound I-64, 6-(2-(1-(5-Cyclopropyl-4-(trifluoromethyl)thiazol-2-yl)azetidin-3-yl)acetyl)-1,3,4-trimethyl-1,5,6,7-tetrahydro-2H-pyrrolo[3,4-b]pyridin-2-one] | 50 to 200 | 200 to 1000 | 50 to 200

Other lines, results leading:

EC50 [1] [nM] | EC50 [2] [nM] | EC50 [3] [nM] | Structure (SMILES)
200 to 1000 | > 1000 | > 1000 | COc1cc(N2CC(CC(=O)N3Cc4c(C(F)(F)F)cc(=O)n(C)c4C3)C2)ccn1 [Compound I-92]
< 50 | 50 to 200 | < 50 | Cc1c2c(n(C)c(=O)c1Cl)CN(C(=O)CC1CN(c3ccnc(C(F)(F)F)c3)C1)C2C (stereo not drawn) [Compound I-118, 3-Chloro-1,4,5-trimethyl-6-(2-(1-(2-(trifluoromethyl)pyridin-4-yl)azetidin-3-yl)acetyl)-1,5,6,7-tetrahydro-2H-pyrrolo[3,4-b]pyridin-2-one]
50 to 200 | 200 to 1000 | 200 to 1000 | COc1cc(N2CC(CC(=O)N3Cc4c(C)cc(=O)n(C)c4C3)C2)cc(C(F)(F)F)n1 [Compound I-39, 6-(2-(1-(2-Methoxy-6-(trifluoromethyl)pyridin-4-yl)azetidin-3-yl)acetyl)-1,4-dimethyl-1,5,6,7-tetrahydro-2H-pyrrolo[3,4-b]pyridin-2-one]
200 to 1000 | 200 to 1000 | > 1000 | Cn1c2c(c(C(F)(F)F)cc1=O)CN(C(=O)CC1CN(c3cccnc3)C1)C2 [Compound I-91, 1-Methyl-6-(2-(1-(pyridin-3-yl)azetidin-3-yl)acetyl)-4-(trifluoromethyl)-1,5,6,7-tetrahydro-2H-pyrrolo[3,4-b]pyridin-2-one]
50 to 200 | 50 to 200 | < 50 | Cc1c2c(n(C)c(=O)c1F)CN(C(=O)CC1CN(c3ccc(C(F)(F)F)cc3)C1)C2 [Compound I-85]
50 to 200 | 50 to 200 | 200 to 1000 | Cc1cc(=O)n(C)c2c1CN(C(=O)CC1CN(c3nc(C(F)(F)F)cs3)C1)C2 [Compound I-31]
200 to 1000 | 200 to 1000 | < 50 | Cc1cc(=O)n(C)c2c1[C@@H](C)N(C(=O)CC1CN(c3ccc(C(F)(F)F)cc3)C1)C2 [Compound I-117, (R)-1,4,5-trimethyl-6-(2-(1-(4-(trifluoromethyl)phenyl)azetidin-3-yl)acetyl)-1,5,6,7-tetrahydro-2H-pyrrolo[3,4-b]pyridin-2-one]
